These results are taken from paper PMC5584945, “Evaluation of robenidine analog NCL195 as a novel broad-spectrum antibacterial agent” (PLoS ONE, 2017).

Data set [1] deals with Enterococcus faecalis ATCC 29212. Description: MIC, broth micro-dilution (CLSI), control strain. The format is cell-based. The procedure:
MICs for NCL812 and its analogs (serial two-fold dilutions commencing at 128 μg/ml) were determined (in duplicate) in round bottom 96-well microtitre trays (Sarstedt 82.1582.001), using the broth micro-dilution method recommended by the Clinical and Laboratory Standards Institute (CLSI). […] MIC50, MIC90 and MIC range for NCL812, NCL195 and NCL219 were calculated against each S. pneumoniae, S. aureus or VRE isolate. To assess the potential activity of NCL195 against Gram-negative bacteria, MICs against Acinetobacter spp, E. coli, K. pneumoniae, P. aeruginosa, Proteus spp and Neisseria meningitidis were performed in the presence or absence of 0.08 mM-20 mM EDTA in a standard checkerboard assay.

The next data set concerns S. aureus ATCC49775. The data set is described as follows: Membrane potential, DiOC2(3) fluorescence. Type of data set: cell-based, Staphylococcus aureus. The note with it: 16 μg/ml, pre-incubated 5 min; versus untreated and ampicillin. How it is done: (§1) To further examine the mechanism underlying the perturbation of the cell membrane of S. pneumoniae or S. aureus by the NCL compounds, the membrane potential of the cells was measured by fluorescence spectrometry using (DiOC2(3), essentially as described previously. Briefly, […] cells from an overnight HBA plate were grown in Todd-Hewitt broth supplemented with 1% yeast extract (THY) at 37°C, 5% CO2 until A600 nm = 0.5. […] The cuvette was then placed in a LS 55 Fluorescence Spectrometer (PerkinElmer) set at Ex. 488 nm/Em. 620 nm, with excitation and emission slit widths at 5 nm and 7 nm, respectively). […] All assays were performed at least twice.

The next data set relates to S. pneumoniae D39. The data set is described as follows: Membrane potential, DiOC2(3) fluorescence. Type of data set: cell-based, Streptococcus pneumoniae. The note with it: 16 μg/ml, pre-incubated 5 min; versus untreated and ampicillin. The procedure: as §1
The subject of a further data set is S. aureus Xen29. Description: Minimum bactericidal concentration (MBC). Type of data set: cell-based. The note with it: Staphylococcus aureus, 99.9% colony count reduction. The procedure: The tray was covered with Breathe-Easy sealing membrane (Z380059, Sigma-Aldrich) and incubated for 16 h overnight at 35°C in an EnSpire Multimode Plate Reader 2300 (PerkinElmer), with data collected every 20 min and 2 sec agitation at 60 rpm between data (A600 nm) acquisitions. The experiment was repeated using the luminescent D39LUX strain on a Cytation 5 Cell Imaging Multi-Mode Reader (BioTek) using IsoplateTM-96 F tray PerkinElmer, 6005020). Kill kinetic assays on S. aureus Xen29 was carried out essentially as described for MIC determination on Cytation 5 Cell Imaging Multi-Mode Reader.
In order to determine the MBC of each compound against S. pneumoniae D39 or S. aureus Xen29, 10 μl aliquots from each duplicate well from the MIC assays (starting from the MIC for each compound) was inoculated onto a HBA plate and incubated at 37°C (+ 5% CO2 for S. pneumoniae D39). Plates were examined at 24 and 48 h and the MBC was recorded as the lowest concentration of each test compound at which a 99.9% colony count reduction was observed on the plate.

Data set [2] in a line: LogD by gradient HPLC chromatographic method. Type of data set: physicochemical. To be noted: pH 7.4.
Another data set deals with MDBK. The data set is described as follows: In vitro cytotoxicity, WST-1. The format is cell-based, bovine. To be noted: Bos taurus, 24 h exposure, read-out: IC50 values ± SEM. From the text: In order to ensure minimal off target mammalian cell cytotoxicity, we assayed NCL812, NCL195 and NCL219 for in vitro cytotoxicity using a panel of adherent mammalian cell lines: Caco-2 (human colorectal adenocarcinoma cell line), HEL 299 (non-cancerous human lung fibroblast cell line), Hep G2 (human hepatocellular carcinoma cell line), MDBK (normal bovine kidney cell line) and MCF7 (human mammary gland adenocarcinoma cell line). Cell lines were maintained in Dulbecco’s Modified Eagle’s Medium (DMEM; […] After 24 h incubation, media was removed, washed once with medium without antibiotics and fresh medium supplemented with 10% (vol/vol) FBS was added. […] Following exposure for 24 h, WST-1 reagent was added to each well at a final concentration of 10%. […] The IC50 value for each compound against each cell line was determined via non-linear regression (three parameters) using GraphPad Prism v6 software. The robustness of assays was confirmed with selected cell lines (Hep G2 and MDBK) seeded onto a 96–well Microwell Nunclon Delta Surface plate (Thermo Scientific Nunc; Cat No: 136101) at 5 × 10^4 cells per well.
(In general: Tetrazolium dyes change colour on reduction, which living cells bring about.)

Data set [3] is described as follows: Microsomal metabolic stability. Type of data set: in vitro ADME. To be noted: for half-life at 0.4 μg/ml: 0.4 μg/ml compound, 0.4 mg/ml protein, NADPH. The procedure: The metabolic stability assay was performed by incubating 0.4 μg/ml of each test compound with human and mouse liver microsomes (Xenotech, Lot# 1210057 and 1310211, respectively) suspended in 0.1 M pH 7.4 phosphate buffer at 37°C and 0.4 mg/ml protein concentration. The metabolic reaction was initiated by the addition of an NADPH-regenerating system (i.e. NADPH is the cofactor required for CYP450-mediated metabolism) and quenched at various time points over a 60 min incubation period by the addition of acetonitrile containing diazepam as internal standard. Control samples (containing no NADPH) were included (and quenched at 2, 30 and 60 min) to monitor for potential degradation in the absence of cofactor. Test compound concentration vs time data were fitted to an exponential decay function to determine the first-order rate constant for substrate depletion. This was used to calculate a degradation half-life (T1/2), in vitro intrinsic clearance (CLINT), microsome-predicted blood clearance (CLblood) and a microsome-predicted hepatic extraction ratio (EH) according to the in vitro half-life method of Obach[53].

[4] abbreviates: human, liver microsomes, pH 7.4, read-out: CLINT.
The mark [5] stands for this setting: human, hepatic extraction ratio.
The mark [6] stands for this setting: liver microsomes, pH 7.4, human.
The mark [7] stands for this setting: liver microsomes, pH 7.4, mouse.
Where [8] appears, read: mouse, liver microsomes, pH 7.4, read-out: CLINT.
The mark [9] stands for this setting: mouse, hepatic extraction ratio.

The structures appear in SMILES notation. Converted amounts (≈) assume the structure as drawn. Read-outs that look alike come from different tables or passages of the source.

By MIC is commonly meant the lowest concentration found to suppress growth. In the case of `CC1(C)S[C@@H]2[C@H](NC(=O)[C@H](N)c3ccccc3)C(=O)N2[C@H]1C(=O)O` [Ampicillin], the MIC in data set [1] (ATCC29212, absence of FBS) was 2 µg/mL.

Take `CCCCCCCCCC(=O)N[C@@H](Cc1c[nH]c2ccccc12)C(=O)N[C@H](CC(N)=O)C(=O)N[C@@H](CC(=O)O)C(=O)N[C@@H]1C(=O)NCC(=O)N[C@@H](CCCN)C(=O)N[C@@H](CC(=O)O)C(=O)N[C@H](C)C(=O)N[C@@H](CC(=O)O)C(=O)NCC(=O)N[C@H](CO)C(=O)N[C@@H]([C@H](C)CC(=O)O)C(=O)N[C@@H](CC(=O)c2ccccc2N)C(=O)O[C@@H]1C` [Daptomycin, daptomycin]: the MIC in data set [1] (ATCC29212, 10% FBS) came to 2 µg/mL; in data set [1] (ATCC29212, absence of FBS), 2 µg/mL.

A word on the MBC: it is the smallest concentration meeting the test's criterion for killing. A low value points to greater bactericidal potency. As usually defined, the chromatographic logD is lipophilicity estimated from chromatographic retention. The low end stands for lower lipophilicity, the high end for higher lipophilicity. A word on the IC50: it is the midpoint of a concentration-inhibition curve. A word on the half-life: it is the time in which the quantity being followed falls by half. As for `Cc1ccc(/C=N/Nc2cc(N/N=C/c3ccc(C)cc3)nc(N)n2)cc1` [NCL195, 4,6-bis(2-((E)-4-methylbenzylidene)hydrazinyl)pyrimidin-2-amine], the “Effect on generated membrane potential” value in the data set on S. aureus ATCC49775 and in the data set with S. pneumoniae D39 was “large reduction in the magnitude of the generated membrane potential” in each case. Also, the MBC in the data set on S. aureus Xen29 turned out to be 2 µg/mL (≈ 5.56 µM). In addition, the chromatographic logD in data set [2] came to 4.5. Also, the IC50 with MDBK amounted to 17.3 ± 0.2 µg/mL (≈ 48.1 µM). In addition, the MIC stood at 32 µg/mL in data set [1] (ATCC29212, 10% FBS) and 4 µg/mL in data set [1] (ATCC29212, absence of FBS). Moreover, the microsomal CLint at 0.4 μg/ml in data set [3] (setting [4]) and in data set [3] (setting [8]) was less than 7 µL/min/mg in each case. The “Predicted EH” value is reported as less than 0.22 in data set [3] (setting [5]) and less than 0.13 in data set [3] (setting [9]). The “Predicted CLblood” value in data set [3] (human, microsome-predicted) was less than 5 mL/min/kg; in data set [3] (mouse, microsome-predicted), less than 16 mL/min/kg. In addition, the half-life at 0.4 μg/ml in data set [3] (setting [6]) and in data set [3] (setting [7]) was greater than 4.12 h each time.

On to `C/C(=N\NC(=N)N/N=C(\C)c1ccc(C(C)(C)C)cc1)c1ccc(C(C)(C)C)cc1` [NCL219, (E)-N'-((E)-1-(4-(tert-butyl)phenyl)ethylidene)-2-(1-(4-(tert-butyl)phenyl)ethylidene)hydrazine-1-carboximidhydrazide], for which the “Effect on generated membrane potential” value in the data set on S. aureus ATCC49775 and in the data set with S. pneumoniae D39 was “large reduction in the magnitude of the generated membrane potential” throughout. This compound showed an MBC in the data set with S. aureus Xen29 of 16 µg/mL (≈ 39.4 µM). In data set [2], this compound showed a chromatographic logD greater than 5.3. In addition, in the data set with MDBK, the IC50 amounted to 16 ± 0.2 µg/mL (≈ 39.4 µM). In addition, the minimal inhibitory concentration (MIC) in data set [1] (ATCC29212, 10% FBS) worked out at 8 µg/mL; in data set [1] (ATCC29212, absence of FBS) it was 2 µg/mL. For the same compound, the values for the microsomal CLint at 0.4 μg/ml in data set [3] (setting [4]) and in data set [3] (setting [8]) were 94 µL/min/mg and 121 µL/min/mg, respectively. Moreover, the “Predicted EH” value was 0.79 in data set [3] (setting [5]) and 0.72 in data set [3] (setting [9]). For the same compound, the “Predicted CLblood” value was 16 mL/min/kg in data set [3] (human, microsome-predicted) and 87 mL/min/kg in data set [3] (mouse, microsome-predicted). In addition, the results for the half-life at 0.4 μg/ml in data set [3] (setting [6]) and in data set [3] (setting [7]) were 0.3 h and 0.233 h, respectively.

Consider `Cl.N=C(NN=Cc1ccc(Cl)cc1)NN=Cc1ccc(Cl)cc1` [NCL812, 2,2'-bis[(4-chlorophenyl)methylene] carbonimidic dihydrazide hydrochloride], for which the “Effect on generated membrane potential” value in the data set on S. aureus ATCC49775 and in the data set with S. pneumoniae D39 was “large reduction in the magnitude of the generated membrane potential” in each case. In the data set with S. aureus Xen29, this compound had an MBC of 4 µg/mL. This compound also returned a chromatographic logD in data set [2] of 4.5. Besides, in the data set with MDBK, the IC50 amounted to 5.9 ± 0.1 µg/mL. Besides, the minimal inhibitory concentration (MIC) in data set [1] (ATCC29212, 10% FBS) was 32 µg/mL; in data set [1] (ATCC29212, absence of FBS), 4 µg/mL. Moreover, the “Predicted CLblood” value in data set [3] (human, 0.4 μg/ml, pH 7.4) is less than 5 mL/min/kg; in data set [3] (mouse, 0.4 μg/ml, pH 7.4), less than 16 mL/min/kg. Further, the microsomal CLint at 0.4 μg/ml in data set [3] (human, microsomes, pH 7.4) is less than 7 µL/min/mg; in data set [3] (mouse, microsomes, pH 7.4) it was less than 7 µL/min/mg. The half-life at 0.4 μg/ml in data set [3] (microsomes, pH 7.4, human) was greater than 4.12 h; in data set [3] (microsomes, pH 7.4, mouse), greater than 4.12 h. Also, the “Predicted EH” value in data set [3] (mouse, 0.4 μg/ml, pH 7.4) is recorded as less than 0.13.
